These results are taken from publication PMC4374918, “Interaction of ATP with a Small Heat Shock Protein from Mycobacterium leprae: Effect on Its Structure and Function” (PLoS Neglected Tropical Diseases, 2015).

Data set [1] has as its target T1, HSP18 (Mycobacterium leprae, UniProt P12809).
T1 construct: recombinant wild-type M. leprae HSP18
The experiment in a line: SPR (Biacore T200, HSP18 immobilized on CM5 chip). It is filed as binding. In general terms: SPR reads the build-up and loss of mass on a sensor chip optically.

The target in data set [2] is T1, HSP18. The experiment in a line: SPR (Biacore T200, HSP18 immobilized on CM5 chip); also TNP-ATP displacement and thermal stabilization. The class given is binding.
Data set [3] has as its target T1, HSP18. Kind of data set: fluorescence titration, Scatchard analysis. It is filed as binding.
Data set [4] deals with the molecule itself. The experiment in a line: dynamic light scattering; HSP18 0.5 mg/ml in 50 mM phosphate buffer pH 7.5, 25°C, with or without 1 mM ATP; hydrodynamic radius of the oligomers.

For orientation: Kd means the equilibrium constant for the complex coming apart. The low end stands for a tighter complex, the high end for a looser complex. Take `Nc1ncnc2c1ncn2[C@@H]1O[C@H](CO[P@](=O)(O)O[P@](=O)(O)O[P@@](=O)(O)S)[C@@H](O)[C@H]1O` [ATP-γS]: in data set [1], the Kd is 330 nM.
The molecule `Nc1ncnc2c1ncn2[C@@H]1O[C@H](COP(=O)(O)OP(=O)(O)OP(=O)(O)O)[C@@H](O)[C@H]1O` [ATP] gave an equilibrium dissociation constant (Kd) in data set [2] of 590 nM. That is a sub-micromolar value.
For the molecule `Nc1ncnc2c1ncn2[C@@H]1O[C@H](COP(=O)(O)OP(=O)(O)OP(=O)(O)O)[C@H]2OC3(O[C@H]21)C([N+](=O)[O-])=CC(=[N+]([O-])[O-])C=C3[N+](=O)[O-]` (stereo partly shown) [TNP-ATP], the dissociation constant (Kd) in data set [3] came out at 730 nM.

B1: Mycobacterium leprae HSP18 (18 kDa antigen, small heat shock protein) (natural protein, UniProt P12809 1-148, looked up)
chain: MLMRTDPFRELDRFAEQVLGTSARPAVMPMDAWREGEEFVVEFDLPGIKADSLDIDIERNVVTVRAERPGVDPDREMLAAERPRGVFNRQLVLGENLDTERILASYQEGVLKLSIPVAERAKPRKISVDRGNNGHQTINKTAHEIIDA
notes: M. leprae HSP18 (18 kDa antigen), wild-type; source: recombinant wild-type, expressed and purified as described previously [5]; copies: 29
Regarding B1, the binding result in data set [4] was “binds”.
